{
  "source": "patent US20120064008A1",
  "about": "“COMPOSITIONS FOR THE TREATMENT OF METASTATIC CANCER AND METHODS OF USE THEREOF” (priority 2009, published 2012)",
  "key": {"PC-3MLN4 cells": {"test_system": "PC-3MLN4 cells", "test": "Normalized mitotic index (histone H3 phospho-Serine-28), PC-3MLN4", "type": "cell-based", "settings": "Homo sapiens, at 1 μM; normalized against vehicle-treated cells; read-out: Normalized mitotic index PC-3MLN4", "text": "(§1) The mitotic index for each agent was normalized against those obtained from vehicle-treated cells, and compared with the activity of paclitaxel, a known inducer of mitotic arrest."}, "PC-3M cells": {"test_system": "PC-3M cells", "test": "Normalized mitotic index (histone H3 phospho-Serine-28), PC-3M", "type": "cell-based", "settings": "Homo sapiens, at 1 μM, normalized against vehicle-treated cells, read-out: Normalized mitotic index PC-3M", "text": "as §1"}, "AT6.1 cells": {"test_system": "AT6.1 cells", "test": "Normalized mitotic index (histone H3 phospho-Serine-28), AT6.1", "type": "cell-based", "settings": "Rattus norvegicus, at 1 μM; normalized against vehicle-treated cells; read-out: Normalized mitotic index AT6.1", "text": "as §1"}, "[1]": {"test_system": "AT6.1 Dunning rat prostate carcinoma", "test": "Survival in intravenous AT6.1 Dunning rat prostate carcinoma lung metastasis model", "type": "in vivo, nu/nu mice", "settings": "10 mg/kg three times a week", "experimental": "Many anti-tumor drugs are tested only for their ability to prevent primary tumor growth or to prevent the dissemination of metastatic cells. To accomplish this, the drug is usually administered shortly after the primary tumor is established. […] The benzimidazoles described herein were evaluated in an experimental metastases model in the lungs of nude mice following tail-vein injection of Dunning rat AT6.1 prostate carcinoma. […] In order to achieve greater bioavailability, we first solubilized benzimidazoles in DNTC formulation and then diluted with saline prior to injection.\nInbred male nu/nu mice age 6-8 weeks were obtained from Massachusetts General Hospital (Boston, Mass.). The mice were virus antibody free, age and weight matched for experimental use and fed with a balanced rodent diet ad libitum. AT6.1 Dunning rat prostate cells were maintained as described above. 1×10^4 log-phase cells were injected via tail vein in 0.1 mL Hanks solution. Vehicle or drug treatment was started on day 5 post inoculation and given three times a week (Monday, Wednesday and Friday) via intraperitoneal injection in 0.5 mL volume. Benzimidazole drugs were prepared in the combination carrier [DMSO (12.5%), NMP (37.5%), TWEEN®-80 (25%) and CrEL (25%)] and diluted in saline. Vehicle control was prepared by diluting the combination carrier with saline.\nDuring the course of treatment, the mice were monitored for toxicity by measuring body weight. […] Animals were euthanized with CO2 and tissues were collected for further analysis. The animals and experiments used in these studies were approved by the institutional animal care committee according to Children's Hospital Boston ARCH guidelines.\nTo distinguish differences in survival between these groups, the percent increase in life span (ILS %), defined as the percent increase in the mean time to death of drug-treated animals over the corresponding time to death for vehicle-treated mice, was calculated."}, "[2]": {"test": "Combination with paclitaxel, Cyquant cell growth inhibition, CompuSyn median-dose effect analysis", "type": "cell-based", "settings": "alone or in combination, read-out: Dose Tax", "experimental": "Cell growth inhibition assays were performed using Cyquant reagent as described above. Drug interactions were quantitated by median-dose effect analysis and combination index values as well as dose reduction index were derived using CompuSyn software (ComboSyn, Inc.), as described previously in the literature. CI values of <1, =1, and >1 indicate synergism, additivity and antagonism between the drugs, respectively.\nAll benzimidazole drugs were prepared using the combination carrier and diluted with culture medium prior to treatment."}, "[3]": {"test_system": "paclitaxel-resistant PC3-TR prostate cancer cells", "test": "Cyquant cell viability assay, PC3-TR", "type": "cell-based, human", "settings": "72 hours", "experimental": "(§2) The cytotoxic effects of paclitaxel, fenbendazole, and albendazole were compared in paclitaxel-resistant PC3-TR and DU145-TR prostate cancer cells with their paclitaxel-sensitive counterparts, PC3 and DU145 cells. Cells were treated for 72 hours with vehicle, paclitaxel, fenbendazole or albendazole in various doses. Cell viability was measured using Cyquant assay, and percent control was calculated by dividing the fluorescent reading from drug-treated cells with those from vehicle-treated cells, indicating percentage of cell survival."}, "[4]": {"test_system": "paclitaxel-resistant DU145-TR prostate cancer cells", "test": "Cyquant cell viability assay, DU145-TR", "type": "cell-based, human", "settings": "72 hours", "experimental": "as §2"}, "PC3 cells [5]": {"test_system": "PC3 cells", "test": "Normalized mitotic index, PC3", "type": "cell-based, human", "settings": "100 nM"}, "PC3-TR cells [6]": {"test_system": "PC3-TR cells", "test": "Normalized mitotic index, PC3-TR", "type": "cell-based, human", "settings": "100 nM"}, "DU145 cells [7]": {"test_system": "DU145 cells", "test": "Normalized mitotic index, DU145", "type": "cell-based, human", "settings": "100 nM"}, "DU145-TR cells [8]": {"test_system": "DU145-TR cells", "test": "Normalized mitotic index, DU145-TR", "type": "cell-based, human", "settings": "100 nM"}, "PC3 cells [9]": {"test_system": "PC3 cells", "test": "% apoptotic cells, PC3", "type": "cell-based, human", "settings": "100 nM"}, "PC3-TR cells [10]": {"test_system": "PC3-TR cells", "test": "% apoptotic cells, PC3-TR", "type": "cell-based, human", "settings": "100 nM"}, "DU145 cells [11]": {"test_system": "DU145 cells", "test": "% apoptotic cells, DU145", "type": "cell-based, human", "settings": "100 nM"}, "DU145-TR cells [12]": {"test_system": "DU145-TR cells", "test": "% apoptotic cells, DU145-TR", "type": "cell-based, human", "settings": "100 nM"}, "PC-3TxR cells": {"test_system": "PC-3TxR cells", "test": "Subcutaneous PC-3TxR tumors in nude mice", "type": "in vivo", "settings": "10 mg/kg three times a week for 3 weeks", "quoted_text": "PC-3TxR cells were inoculated subcutaneously in the flanks of the nude mice. When the tumors reached approximately 100 mm^3 in size, the mice were treated with vehicle, paclitaxel (10 mg/kg), fenbendazole (100 mg/kg) or albendazole (100 mg/kg) three times a week for 3 weeks. These benzimidazoles were prepared in DNTC and diluted with saline prior to injection.\nPC-3TxR cells were inoculated subcutaneously in the flanks of the nude mice. When the tumors reached approximately 100 mm3 in size, the mice were treated with vehicle, paclitaxel (10 mg/kg), fenbendazole (100 mg/kg) or albendazole (100 mg/kg) three times a week for 3 weeks. These benzimidazoles were prepared in DNTC and diluted with saline prior to injection."}},
  "note": "Read-outs that look alike come from different tables or passages of the source.",
  "data": [
    {"smiles": "CC(=O)O[C@H]1C(=O)[C@@]2(C)[C@H]([C@H](OC(=O)c3ccccc3)[C@]3(O)C[C@H](OC(=O)[C@H](O)[C@@H](NC(=O)c4ccccc4)c4ccccc4)C(C)=C1C3(C)C)[C@]1(OC(C)=O)CO[C@@H]1C[C@@H]2O", "note": "[Paclitaxel]", "values": [
      {"measurement": "fold induction at 1 µM", "setting": "PC-3MLN4 cells", "value": 2.34},
      {"measurement": "fold induction at 1 µM", "setting": "PC-3M cells", "value": 2.43},
      {"measurement": "fold induction at 1 µM", "setting": "AT6.1 cells", "value": 2.1},
      {"measurement": "percent increase in life span (ILS %)", "setting": "[1]", "value": 30.2, "unit": "%"},
      {"measurement": "EC50", "setting": "[2]; Fa 0.50, listed as Tax", "value": 0.937, "unit": "µM"},
      {"measurement": "EC50", "setting": "[2]; Fa 0.50", "value": 0.936, "unit": "µM"},
      {"measurement": "EC50", "setting": "[2]; Fa 0.60", "value": 1.392, "unit": "µM"},
      {"measurement": "cytotoxic effect against PC3-TR (PC-3TxR)", "setting": "[3]", "value": "refractory"},
      {"measurement": "cytotoxic effect against PC3-TR (PC-3TxR)", "setting": "[3]; listed as taxol", "value": "less effective"},
      {"measurement": "cytotoxic effect against DU145-TR (DU-145TxR)", "setting": "[4]", "value": "refractory"},
      {"measurement": "cytotoxic effect against DU145-TR (DU-145TxR)", "setting": "[4]; listed as taxol", "value": "less effective"},
      {"measurement": "Normalized mitotic index (6 hours) PC3", "setting": "PC3 cells [5]", "value": 1.32},
      {"measurement": "Normalized mitotic index (6 hours) PC3-TR", "setting": "PC3-TR cells [6]", "value": 1.56},
      {"measurement": "Normalized mitotic index (6 hours) DU145", "setting": "DU145 cells [7]", "value": 3.52},
      {"measurement": "Normalized mitotic index (6 hours) DU145-TR", "setting": "DU145-TR cells [8]", "value": 0.86},
      {"measurement": "% Apoptotic cells (72 hours) PC3", "setting": "PC3 cells [9]", "value": 16.4, "unit": "%"},
      {"measurement": "% Apoptotic cells (72 hours) PC3-TR", "setting": "PC3-TR cells [10]", "value": 8.9, "unit": "%"},
      {"measurement": "% Apoptotic cells (72 hours) DU145", "setting": "DU145 cells [11]", "value": 37.3, "unit": "%"},
      {"measurement": "% Apoptotic cells (72 hours) DU145-TR", "setting": "DU145-TR cells [12]", "value": 11.5, "unit": "%"},
      {"measurement": "growth of PC-3TxR tumors compared to the vehicle treated group", "setting": "PC-3TxR cells", "value": "significantly greater"}
    ]}
  ]
}
